Assay results from patent US9284303B2, “Benzimidazole cannabinoid agonists bearing a substituted heterocyclic group” (priority 2006, dated 2016).
Read-outs that look alike come from different tables or passages of the source.

Experiments:
[1] = molecular target: T1, human CB2 (hCB2) receptor (Homo sapiens, UniProt P34972); assay: Inhibition of forskolin-activated cAMP production upon activation of hCB2 (HTRF), CHO-K1 cells; assay type: cell-based; conditions: for EC50: forskolin-activated cAMP, pEC50=-log(EC50); for ratio CB2 agonism over CB1 agonism: Table C-1, selectivity hCB2 over hCB1; for ratio CB2 over CB1 agonism: Table C-3, comparison of art compounds A to E with compounds of the invention
T1 construct: expressed in transfected cells; host or cells: CHO-K1
Experimental: (§1) Functional activity of the test compounds was assessed by measuring their potency to inhibit forskolin-activated cAMP production upon activation of the human CB1 (hCB1) or human CB2 (hCB2) receptor through homogenous time resolved fluorescence (HTRF) assays.
(§2) Before the experiments, medium was removed, cells were washed with PBS/EDTA (140 mM NaCl, 1 mM Naz-EDTA, 8 mM Na2HPO4.2H2O, 8.5 mM KH2PO4, 2.7 mM KCl, 21 mM glucose), resuspended in stimulation buffer (HBSS 1x, IBMX 1 mM, Hepes 5 mM, MgCl2 10 mM, BSA 0.1%, pH 7.4). Cells were diluted to a concentration of 8.10^5 cell/ml for hCB1 experiments and 10^6 cells/ml for hCB2 experiments. Assays were performed using the cAMP Dynamic HTRF kit (CIS bio international, France) according to the recommendations of the manufacturer.
Then, 20 μl of the diluted hCB2-CHO-K1 cells was added (20,000 cells/well). After 30 minutes incubation in dark at room temperature, 10 μl cAMP-XL665 and 10 μl anti-cAMP cryptate (both at a final dilution of 1/100) was added to the cells.

[2] = molecular target: T2, human CB1 (hCB1) receptor (Homo sapiens, UniProt P21554); assay: Inhibition of forskolin-activated cAMP production upon activation of hCB1 (HTRF), CHO-K1 cells; assay type: cell-based
T2 construct: expressed in transfected cells; host or cells: CHO-K1
Experimental: as §1
as §2, with “CHO-K1 cells stably transfected with either hCB1 or hCB2 were grown up to 80-90% confluence in T175 Falcon flasks in DMEM/NUT MIX F-12 culture medium complemented with 2% Solution A (5.10^6 IU/l penicillin G, 5 g/l streptomycin sulphate, 5.5 g/l pyruvate, 14.6 g/l L-glutamine, 1M NaOH) and 10% foetal calf serum. Before” for “Before”
For CB1, each well of a 96 flat bottom black polystyrene assay plate (Costar) was filled with 25 μl stimulation buffer containing 6 μM forskolin and either test compound (in 2% DMSO), 2% DMSO or 2 μM CP55490 (in 2% DMSO). Then, 25 μl of the diluted cells was added (20,000 cells/well). After 30 minutes incubation in dark at room temperature, 25 μl cAMP-XL665 and 25 μl anti-cAMP cryptate (both at a final dilution of 1/80) was added to the cells.
After equilibration of the reaction mixtures for 1 to 24 hours in dark at room temperature, fluorescence was measured at 665 nm and 620 nm using a Discovery microplate fluorescence counter (Perkin Elmer), and the signal ratio of 665 nm/620 nm was calculated. The signal ratios of the test compounds were expressed relative to the signal ratios of the DMSO control (maximal signal ratio, no inhibition of cAMP) and CP55490 or WIN55212-2 for hCB1 and hCB2, respectively (minimal signal ratio, maximal inhibition of cAMP). From the dose response curves generated for each test compound, the dose at which 50% of the maximal inhibition of cAMP level is observed (EC50, expressed in the Tables as pEC50=−log(EC50) values) and the level of inhibition reached with 10 μM of the test compound compared to CP55490 (for hCB1) or WIN55212-2 (for hCB2) was calculated.

[3] = hCB2-CHO-K1 cells, read-out: CB2 pEC50 (converted)
[4] = CB1 pEC50, hCB1-CHO-K1 cells, forskolin-activated cAMP, pEC50=-log(EC50)

T1 sequence (P34972 whole entry): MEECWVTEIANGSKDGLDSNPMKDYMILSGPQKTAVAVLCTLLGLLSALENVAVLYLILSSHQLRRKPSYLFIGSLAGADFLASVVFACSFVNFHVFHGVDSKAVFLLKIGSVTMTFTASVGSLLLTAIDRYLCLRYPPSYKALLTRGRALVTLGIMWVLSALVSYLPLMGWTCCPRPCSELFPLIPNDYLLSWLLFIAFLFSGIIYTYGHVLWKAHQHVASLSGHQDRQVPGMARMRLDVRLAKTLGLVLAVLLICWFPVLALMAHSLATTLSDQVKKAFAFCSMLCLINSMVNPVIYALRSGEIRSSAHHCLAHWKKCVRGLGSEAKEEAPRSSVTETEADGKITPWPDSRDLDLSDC
T2 sequence (P21554 whole entry): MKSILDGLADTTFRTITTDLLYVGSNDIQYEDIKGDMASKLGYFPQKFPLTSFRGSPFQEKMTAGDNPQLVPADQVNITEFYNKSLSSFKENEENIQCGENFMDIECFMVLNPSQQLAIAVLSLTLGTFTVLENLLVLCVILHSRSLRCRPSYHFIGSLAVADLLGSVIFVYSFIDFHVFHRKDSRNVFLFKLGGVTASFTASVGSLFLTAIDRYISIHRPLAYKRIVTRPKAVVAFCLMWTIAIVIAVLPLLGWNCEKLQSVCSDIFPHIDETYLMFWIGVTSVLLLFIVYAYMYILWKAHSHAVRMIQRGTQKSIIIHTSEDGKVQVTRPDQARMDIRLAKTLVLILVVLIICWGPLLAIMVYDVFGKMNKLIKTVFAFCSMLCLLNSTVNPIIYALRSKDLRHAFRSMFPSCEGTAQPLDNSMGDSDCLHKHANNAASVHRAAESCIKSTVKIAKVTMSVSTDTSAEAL

CC(C)(C)c1nc2cc([S+]([O-])c3cc[n+]([O-])cc3Br)ccc2n1CC1CCOCC1 (stereo not shown) [Co. No. 86]
EC50 [1, 3]: 12 nM | EC50 [2, 4]: > 10000 nM

CC(C)(C)c1nc2cc([S+]([O-])c3cc[n+]([O-])cc3)ccc2n1CC1CCOCC1 (stereo not shown) [Co. No. 2]
EC50 [1, 3]: 38 nM | EC50 [2, 4]: > 10000 nM

CC(C)(C)c1nc2cc(S(=O)(=O)c3ccnc(F)c3)ccc2n1CC1CCOCC1 [Co. No. 25]
ratio CB2 agonism over CB1 agonism [1]: 495 | ratio CB2 over CB1 agonism [1]: 495 | EC50 [1, 3]: 0.813 nM | EC50 [2, 4]: 407 nM

Cc1[nH][n+]([O-])cc1[S+]([O-])c1ccc2c(c1)nc(C(C)(C)C)n2CC1CCOCC1 (stereo not shown) [Co. No. 137]
EC50 [1, 3]: 1.12 nM | EC50 [2, 4]: 776 nM

CC(C)(C)c1nc2cc(S(=O)(=O)c3cccc(C(F)(F)F)n3)ccc2n1CC1CCOCC1 [Co. No. 110]
ratio CB2 agonism over CB1 agonism [1]: 1905 | EC50 [1, 3]: 0.55 nM | EC50 [2, 4]: 1050 nM

CC(=O)NCCCCc1cc(S(=O)(=O)c2ccc3c(c2)nc(C(C)(C)C)n3CC2CCOCC2)ccn1 [Co. No. 141]
ratio CB2 agonism over CB1 agonism [1]: >1792 | EC50 [1, 3]: 5.62 nM | EC50 [2, 4]: > 10000 nM

CC(C)(C)OC(=O)NCCCOc1cc(S(=O)(=O)c2ccc3c(c2)nc(C(C)(C)C)n3CC2CCOCC2)ccn1 [Co. No. 130]
ratio CB2 agonism over CB1 agonism [1]: >4315 | EC50 [1, 3]: 2.29 nM | EC50 [2, 4]: > 10000 nM

CC(=O)N1CCC(Cn2c(C(C)(C)C)nc3cc(S(=O)(=O)c4cc[n+]([O-])cc4)ccc32)CC1 [Co. No. 143]
EC50 [1, 3]: 17 nM | EC50 [2, 4]: > 10000 nM

CC(C)(C)c1nc2cc(S(=O)(=O)c3ccnc(OC(F)F)c3)ccc2n1CC1CCOCC1 [Co. No. 14]
ratio CB2 agonism over CB1 agonism [1]: 4898 | ratio CB2 over CB1 agonism [1]: 4898 | EC50 [1, 3]: 0.776 nM | EC50 [2, 4]: 3800 nM

COc1c[n+]([O-])ccc1S(=O)(=O)c1ccc2c(c1)nc(C(C)(C)C)n2CC1CCOCC1 [Co. No. 115]
EC50 [1, 3]: 3.72 nM | EC50 [2, 4]: 3630 nM

CO[C@H]1CC[C@H](Cn2c(C(C)(C)C)nc3cc(S(=O)(=O)c4ccnc(F)c4)ccc32)CC1 [Co. No. 160]
ratio CB2 agonism over CB1 agonism [1]: >2344 | EC50 [1, 3]: 4.27 nM | EC50 [2, 4]: > 10000 nM

CC(C)(C)c1nc2cc(S(=O)(=O)c3ccnc(/C=C\Cl)c3)ccc2n1CC1CCOCC1 [Co. No. 124]
ratio CB2 agonism over CB1 agonism [1]: >692 | EC50 [1, 3]: 14.5 nM | EC50 [2, 4]: > 10000 nM

CC(C)(C)c1nc2cc(S(=O)(=O)c3cccnc3)ccc2n1CC1CCOCC1 [Co. No. B, reference compound]
ratio CB2 over CB1 agonism [1]: 30

COc1ccc(S(=O)(=O)c2ccc3c(c2)nc(C(C)(C)C)n3CC2CCOCC2)cn1 [Co. No. 54]
ratio CB2 agonism over CB1 agonism ([1]; listed as 54): 133 | EC50 [1, 3]: 0.933 nM | EC50 [2, 4]: 123 nM

CC(C)(C)c1nc2cc(S(=O)(=O)c3ccnc(F)c3)ccc2n1CC1CCOC(=O)CC1 (stereo not shown) [Co. No. 145]
ratio CB2 agonism over CB1 agonism [1]: >3090 | EC50 [1, 3]: 3.24 nM | EC50 [2, 4]: > 10000 nM

COCCCc1cc(S(=O)(=O)c2ccc3c(c2)nc(C(C)(C)C)n3CC2CCOCC2)cc[n+]1[O-] [Co. No. 155]
EC50 ([1]; CB2 pEC50, hCB2-CHO-K1 cells): 2.51 nM | EC50 [2]: > 10000 nM

CC(C)(C)c1nc2cc(S(=O)(=O)c3cc(S(C)(=O)=O)cnc3O)ccc2n1CC1CCOCC1 [Co. No. 77]
ratio CB2 agonism over CB1 agonism [1]: 1303 | EC50 [1, 3]: 1.95 nM | EC50 [2, 4]: 2570 nM

CC(C)(C)c1nc2cc(S(=O)(=O)c3ccc(O)nc3)ccc2n1CC1CCCCC1 [Co. No. 39]
ratio CB2 agonism over CB1 agonism [1]: 1216 | EC50 [1, 3]: 1.7 nM | EC50 [2, 4]: 2040 nM

COCCCn1cc(S(=O)(=O)c2ccc3c(c2)nc(C(C)(C)C)n3CC2CCOCC2)cn1 [Co. No. 161]
ratio CB2 agonism over CB1 agonism [1]: 2951 | EC50 [1, 3]: 1.82 nM | EC50 [2, 4]: 5250 nM

CC(C)(C)c1nc2cc(S(=O)(=O)c3sc(S(C)(=O)=O)cc3Br)ccc2n1CC1CCOCC1 [Co. No. 63]
ratio CB2 agonism over CB1 agonism ([1]; listed as 63): 2818 | EC50 [1, 3]: 0.977 nM | EC50 [2, 4]: 2820 nM

CCCCN(C)c1cc(S(=O)(=O)c2ccc3c(c2)nc(C(C)(C)C)n3CC2CCOCC2)ccn1 [Co. No. 138]
ratio CB2 agonism over CB1 agonism [1]: 473 | EC50 [1, 3]: 1.74 nM | EC50 [2, 4]: 832 nM

COc1ccc(CNCCc2cc(S(=O)(=O)c3ccc4c(c3)nc(C(C)(C)C)n4CC3CCOCC3)ccn2)cc1 [Co. No. 157]
ratio CB2 agonism over CB1 agonism [1]: >2884 | EC50 [1, 3]: 3.47 nM | EC50 [2, 4]: > 10000 nM

CC(C)(C)c1nc2cc(S(=O)(=O)c3ccc(C(=O)N4CCCC4)cn3)ccc2n1CC1CCCCC1 [Co. No. 38]
ratio CB2 agonism over CB1 agonism [1]: >3631 | EC50 [1, 3]: 2.75 nM | EC50 [2, 4]: > 10000 nM

CC(C)(C)c1nc2cc(S(=O)(=O)c3ccc(OCC(F)(F)F)nc3)ccc2n1CC1CCOCC1 [Co. No. 108]
ratio CB2 agonism over CB1 agonism [1]: >3890 | EC50 [1, 3]: 2.57 nM | EC50 [2, 4]: > 10000 nM

CCC(C)(C)c1nc2cc(S(=O)(=O)c3ccc(OC)nn3)ccc2n1CC1CCC1 [Co. No. 26]
ratio CB2 agonism over CB1 agonism [1]: 676 | EC50 [1, 3]: 0.794 nM | EC50 [2, 4]: 537 nM

CC(C)(C)c1nc2cc(S(=O)(=O)c3ccnc(CCCCN)c3)ccc2n1CC1CCOCC1 [Co. No. 139]
ratio CB2 agonism over CB1 agonism [1]: >759 | EC50 [1, 3]: 13.2 nM | EC50 [2, 4]: > 10000 nM

C=Cc1cc(S(=O)(=O)c2ccc3c(c2)nc(C(C)(C)C)n3CC2CCOCC2)ccn1 [Co. No. 142]
ratio CB2 agonism over CB1 agonism [1]: 1413 | EC50 [1, 3]: 0.955 nM | EC50 [2, 4]: 1350 nM

CC(C)(C)c1nc2cc(S(=O)(=O)c3ccnc(F)c3)ccc2n1CC1CCC1 [Co. No. 136]
ratio CB2 agonism over CB1 agonism [1]: >22734 | EC50 [1, 3]: 0.437 nM | EC50 [2, 4]: > 10000 nM

CC(C)(C)c1nc2cc(S(=O)(=O)c3ccncc3)ccc2n1CC1CCOCC1 [Co. No. A, reference compound]
ratio CB2 over CB1 agonism [1]: 215

CC(C)(C)Cc1nc2cc(S(=O)(=O)c3ccncc3)ccc2n1CC1CCOCC1 [Co. No. E, reference compound]
ratio CB2 over CB1 agonism [1]: 219

CC(C)(C)c1nc2cc(S(=O)(=O)c3ccccn3)ccc2n1CC1CCOCC1 [Co. No. C, reference compound]
ratio CB2 over CB1 agonism [1]: 36

CC(C)(C)c1nc2cc(S(=O)(=O)c3ccoc3)ccc2n1CC1CCOCC1 [Co. No. D, reference compound]
ratio CB2 over CB1 agonism [1]: 26
